{
  "source": "patent US9085593B2",
  "about": "“Therapeutic agent for arthrosis” (SANSHO CO., LTD., priority 2011, dated 2015)",
  "test_system": "osteoarthritis in rabbit knee",
  "test": "Swelling assessment (articular swelling of both hind limbs), rabbit knee osteoarthritis model",
  "format": "in vivo, rabbits (Kbs:NZW)",
  "procedure": "Twelve 11- to 12-week-old male rabbits (Kbs:NZW) were used. Rabbits were reared in separate cages (one rabbit per cage) at 14.4° C. to 24.9° C. under light (12 hours from 7:00 am to 7:00 pm) with continuous ventilation. Rabbits were allowed to eat 150 g of feed (CR-3, CLEA Japan, Inc.) per day and to drink tap water.\n(9Z)-9-Octadecenoic acid-(2-hydroxy-2-oxide-1,2-oxaphospholan-4-yl)methyl ester sodium salt (C18:1-cPA; hereafter, referred to as “ScPA”) was used.\nHair in the vicinity of the knee joint of the right hind limb of a rabbit was shaved using electrical clippers under deep anesthesia, and the shaved area was disinfected with Isodine. The outer coat on the medial aspect of the right hind limb was incised with a surgical knife, the boundary between the medial aspect and the articular capsule of the patellofemoral ligament was further incised, and the medial patellofemoral ligament was then dissected. Thereafter, the articular capsule was spread wide open to expose the medial meniscus, which was then completely removed. Following the removal of the meniscus, tissue and epidermis in the vicinity of the articular capsule were sutured. At the time of suturing, the site of operation was washed with physiological saline (titer: 500 mg/20 ml) containing antibiotics (Viccillin, Meiji Seika Pharma Co., Ltd.).\nAfter the model animals were prepared, they were divided into two groups each consisting of 6 individuals while averaging body […] (i.e., the vehicle administered group of Animal Numbers 101 to 106 and the test substance (ScPA) administered group of Animal Numbers 201 to 206).\nThe test compound and the vehicle were administered in the manner described below. • Route of administration: into the joint cavity • Site of administration: right hind limb (treated limb) • Timing of administration: on days 7, 11, 14, 18, 21, 25, 28, 32, 35, and 39 • Dosage: Test compound: 10 μg/rabbit (volume: 0.2 ml) • Vehicle: 0.2 ml/rabbit • Means of administration: with the use of a 1.0-ml syringe (Terumo Corporation) and a 27 G injection needle (Terumo Corporation) (1-5) Pain Assessment (Weight Distribution Across both Hind Limbs) Frequency of Measurement:\nMeasurement was carried out 6 weeks after the treatment.\nThe widest areas at the joints of the right and left hind limbs were measured using digital calipers, and the articular swelling induced by osteoarthritis was determined using the following equation. Swelling (%) of treated limb (right hind limb)=[(right hind limb (mm)−left hind limb (mm))/(left hind limb (mm)[…])]×100 (1-7) Sampling of Biomaterials (day 42) and Post-Sampling Treatment",
  "key": {"[1]": {"conditions": "joint width, 10 μg/rabbit into joint cavity, Day 42, individual animals 201-206, listed as Test substance, sodium salt"}},
  "note": "Where “and” joins values, the source holds several entries; their conditions need not be identical. Identical values can stand only once.",
  "data": [
    {"smiles": "CCCCCCCC/C=C\\CCCCCCCC(=O)OCC1COP(=O)([O-])C1.[Na+]", "note": "(centres unmarked) [ScPA, (9Z)-9-Octadecenoic acid-(2-hydroxy-2-oxide-1,2-oxaphospholan-4-yl)methyl ester sodium salt]", "values": [
      {"measurement": "Swelling, Mean", "setting": "10 μg/rabbit into joint cavity, Day 42, group mean n=6, p=0.0164 vs vehicle", "result": 0.6, "unit": "%"},
      {"measurement": "Swelling (%) of treated limb (right hind limb)", "setting": "10 μg/rabbit into joint cavity, Day 42, individual animals 201-206, listed as Test substance, sodium salt", "result": "−1.75% and 1.58% and 3.72% and −5.46% and 6.59% and −1.97%"},
      {"measurement": "articular swelling compared with the vehicle administered group", "setting": "day 42, p=0.0164", "result": "inhibited more significantly"},
      {"measurement": "Left hind limb (mm)", "setting": "[1]", "result": "24.60 mm and 23.38 mm and 21.50 mm and 22.88 mm and 23.21 mm and 21.79 mm"},
      {"measurement": "Right hind limb (mm)", "setting": "[1]", "result": "24.17 mm and 23.75 mm and 22.30 mm and 21.63 mm and 24.74 mm and 21.36 mm"}
    ]}
  ]
}
